Measured values: paper PMC10222270, “Natural Product-Based Screening for Lead Compounds Targeting SARS CoV-2 M^pro” (Pharmaceuticals, 2023)
Values joined by “and” are separate entries in the source; they are usually repeats but may differ in a detail not shown here. Equal entries are not always repeated. Structures can show the parent of a compound that is named as a salt. Where two headings read alike, the source gives them in different places.

Assays:
SARS CoV-2 M^pro [1] = molecular target: T1, SARS CoV-2 M^pro (Severe acute respiratory syndrome coronavirus 2, UniProt P0DTD1); experiment: biochemical; type: biochemical; conditions: for inhibition at 80 µM: read-out: Inhibition%(80μM); for result of retest over a concentration range: gradient concentrations
T1 construct: The main protease (M^pro) is a part of the polyprotein chain, also named 3C-like protease; SUMO (cleaved yes); His; made in house; host or cells: Escherichia coli BL21(DE3)

SARS CoV-2 M^pro [2] = molecular target: T1, SARS CoV-2 M^pro; experiment: nanoDSF thermal shift assay (TSA); type: binding; conditions: for △T: versus M^pro+DMSO; for Kd: x-intercept of linear regression of ΔTm on log10 of compound concentration, read-out: Kobs
SARS CoV-2 M^pro [3] = molecular target: T1, SARS CoV-2 M^pro; experiment: Surface plasmon resonance (SPR) binding to biotinylated M^pro
[4] = 0.02%(v/v) Triton X−100 in buffer

## NCCCN(CCCCNCCCNC(=O)CCc1ccc(O)c(O)c1)C(=O)CCc1ccc(O)c(O)c1 [Kukoamine B]
SARS CoV-2 M^pro [1]
  Inhibition%(80μM): 103.22% and 104.32%
  inhibition at 80 µM: 104%

## O=c1c(O)c(-c2cc(O)c(O)c(O)c2)oc2cc(O)cc(O)c12 [Myricetin]
SARS CoV-2 M^pro [1]
  Inhibition%(80μM): 90.18% and 90.28%
  inhibition at 80 µM: 90.6%

## CCCCCCCCCCCCCC(=O)O [Myristic Acid]
SARS CoV-2 M^pro [1]
  Inhibition%(80μM): 82.11% and 84.30%
  inhibition at 80 µM: 85%

## CCCCCCCC/C=C\CCCCCCCCCCCCCC(=O)O [Nervonic Acid]
SARS CoV-2 M^pro [1]
  Inhibition%(80μM): 89.75% and 93.14%
  inhibition at 80 µM: 93.6%

## CCCCCCCC/C=C\CCCCCCCC(=O)O [Oleic Acid]
SARS CoV-2 M^pro [1]
  Inhibition%(80μM): 104.37% and 103.27%
  inhibition at 80 µM: 104%

## C/C=C1/[C@H](O[C@@H]2O[C@H](CO)[C@@H](O)[C@H](O)[C@H]2O)OC=C(C(=O)OC)[C@H]1CC(=O)OCCc1ccc(O)c(O)c1 [Oleuropein]
SARS CoV-2 M^pro [1]
  Inhibition%(80μM): 97.72%
  inhibition at 80 µM: 96.6%

## C=C1C(=O)[C@]23[C@H](O)[C@H]1CC[C@H]2[C@@]12CO[C@]3(O)[C@@H](O)[C@@H]1C(C)(C)CC[C@@H]2O [Oridonin]
SARS CoV-2 M^pro [1]
  Inhibition%(80μM): 83.80% and 85.60%
  inhibition at 80 µM: 84.3%

## CC(=O)/C=C/c1ccc(O)c(O)c1 [Osmundacetone]
SARS CoV-2 M^pro [1]
  Inhibition%(80μM): 98.31% and 98.46%
  inhibition at 80 µM: 98.7%

## CCCCCC/C=C\CCCCCCCC(=O)O [Palmitoleic Acid]
SARS CoV-2 M^pro [1]
  Inhibition%(80μM): 103.78% and 102.80%
  inhibition at 80 µM: 103%

## CCCCCCCCCCCCCCC(=O)O [Pentadecanoic Acid]
SARS CoV-2 M^pro [1]
  Inhibition%(80μM): 92.58% and 91.46%
  inhibition at 80 µM: 92.3%

## CCCCCCCCCCC/C=C\CCCCC(=O)O [Petroselinic Acid]
SARS CoV-2 M^pro [1]
  Inhibition%(80μM): 105.29% and 103.73%
  inhibition at 80 µM: 104%

## O=P(O)(O)O[C@H]1[C@H](OP(=O)(O)O)[C@@H](OP(=O)(O)O)[C@H](OP(=O)(O)O)[C@@H](OP(=O)(O)O)[C@H]1OP(=O)(O)O [Phytic Acid]
SARS CoV-2 M^pro [1]
  Inhibition%(80μM): 97.45% and 98.02%
  inhibition at 80 µM: 97.6%

## O=C(/C=C/c1ccc(O)c(O)c1)OC[C@H]1O[C@@H](OCCc2ccc(O)c(O)c2)[C@H](O)[C@@H](O[C@@H]2O[C@H](CO)[C@@H](O)[C@H](O)[C@H]2O)[C@@H]1O [Plantainoside D]
SARS CoV-2 M^pro [1]
  Inhibition%(80μM): 99.79% and 99.90%
  inhibition at 80 µM: 101%

## CC1=CC(=O)c2c(O)cccc2C1=O [Plumbagin]
SARS CoV-2 M^pro [1]
  Inhibition%(80μM): 74.76% and 75.47%
  inhibition at 80 µM: 70.2%

## CCCOC(=O)c1cc(O)c(O)c(O)c1 [Propyl Gallate]
SARS CoV-2 M^pro [1]
  Inhibition%(80μM): 78.61% and 79.43%
  inhibition at 80 µM: 78.5%

## O=C(/C=C/c1ccc(O)c(O)c1)O[C@H](Cc1ccc(O)c(O)c1)C(=O)O [Rosmarinic Acid]
SARS CoV-2 M^pro [1]
  Inhibition%(80μM): 46.31% and 76.08% and 69.63%

## C[n+]1cc2c3c(ccc2c2ccc4cc5c(cc4c21)OCO5)OCO3 [Sanguinarine chloride]
SARS CoV-2 M^pro [1]
  Inhibition%(80μM): 108.15%
  inhibition at 80 µM: 108%

## O=c1cc(-c2ccc(O)cc2)oc2cc(O)c(O)c(O)c12 [Scutellarein]
SARS CoV-2 M^pro [1]
  Inhibition%(80μM): 85.01% and 83.89%
  inhibition at 80 µM: 84.1%

## O=C(OC[C@H]1O[C@@H](OC(=O)c2cc(O)c(O)c(OC(=O)c3cc(O)c(O)c(O)c3)c2)[C@H](OC(=O)c2cc(O)c(O)c(OC(=O)c3cc(O)c(O)c(O)c3)c2)[C@@H](OC(=O)c2cc(O)c(O)c(OC(=O)c3cc(O)c(O)c(O)c3)c2)[C@@H]1OC(=O)c1cc(O)c(O)c(OC(=O)c2cc(O)c(O)c(O)c2)c1)c1cc(O)c(O)c(OC(=O)c2cc(O)c(O)c(O)c2)c1 [Tannic Acid]
SARS CoV-2 M^pro [1]
  Inhibition%(80μM): 88.66% and 87.66%
  inhibition at 80 µM: 89.6%

## C[C@@H]1CC[C@]2(C(=O)O)CC[C@]3(C)C(=CC[C@@H]4[C@@]5(C)CC[C@H](O[C@@H]6OC[C@H](O)[C@H](O)[C@H]6O)C(C)(C)[C@@H]5CC[C@]43C)[C@@H]2[C@]1(C)O [Ziyuglycoside II]
SARS CoV-2 M^pro [1]
  Inhibition%(80μM): 70.21% and 74.61% and 47.27%

## O=c1cc(-c2ccccc2)oc2cc(O)c(O)c(O)c12 [baicalein, Baicalein, reference compound]
SARS CoV-2 M^pro [1]; 80 μM compound, first value column of Table S2
  inhibition at 80 µM: 99.9%
SARS CoV-2 M^pro [1]; 80 μM compound, second value column of Table S2
  inhibition at 80 µM: 101%
SARS CoV-2 M^pro [1]; 80 μM compound, third value column of Table S2
  inhibition at 80 µM: 98.7%
SARS CoV-2 M^pro [2]; compound 3.125 μM
  Tm of M^pro: 55.2 °C
  △T: 0.3 °C
SARS CoV-2 M^pro [2]; compound 50 μM
  Tm of M^pro: 56.6 °C
  △T: 1.7 °C
SARS CoV-2 M^pro [2]; compound 200 μM
  Tm of M^pro: 57.0 °C
  △T: 2.1 °C

## CC(C)CCCC(C)C1CCC2C3CC=C4CC(OS(=O)(=O)O)CCC4(C)C3CCC12C (centres unmarked) [cholesteryl sodium sulfate, Cholesteryl sodium sulfate]
SARS CoV-2 M^pro [1]
  Inhibition%(80μM): 100.30% and 100.48%
  inhibition at 80 µM: 100%
SARS CoV-2 M^pro [1]; Without Triton X−100
  IC50: 2.74 ± 0.234 µM
SARS CoV-2 M^pro [2]; compound 3.125 μM
  Tm of M^pro: 55.0 °C
  △T: 0.1 °C
SARS CoV-2 M^pro [2]; compound 50 μM
  Tm of M^pro: 54.1 °C
  △T: -0.8 °C
SARS CoV-2 M^pro [2]; compound 200 μM
  Tm of M^pro: 48.9 °C
  △T: -6.0 °C
SARS CoV-2 M^pro [2]
  Kd: 7.6 µM

## CC(C)=CCC/C(C)=C/Cc1cc(-c2coc3cc(O)ccc3c2=O)ccc1O [corylifol A, Corylifol A]
SARS CoV-2 M^pro [1]
  Inhibition%(80μM): 100.01% and 99.99%
  result of retest over a concentration range: unable to generate a whole curve within the concentration range
  inhibition at 80 µM: 100%

## COc1cc2ccc(=O)oc2c(O)c1O [fraxetin, Fraxetin]
SARS CoV-2 M^pro [1]
  Inhibition%(80μM): 97.85% and 96.97%
  inhibition at 80 µM: 96.8%
SARS CoV-2 M^pro [1]; [4]
  IC50: 1.3 ± 0.208 µM
SARS CoV-2 M^pro [1]; Without Triton X−100
  IC50: 2.49 ± 0.178 µM
SARS CoV-2 M^pro [3]; SPR, single concentration 200 μM
  binding trend to M^pro: no binding trends

## CCCCCC/C=C\CCCCCCCc1cccc(O)c1C(=O)O [ginkgolic acid C15:1, Ginkgolic Acid C15:1]
SARS CoV-2 M^pro [1]
  Inhibition%(80μM): 107.06%
  inhibition at 80 µM: 104%
SARS CoV-2 M^pro [1]; Without Triton X−100
  IC50: 9.35 ± 0.531 µM
SARS CoV-2 M^pro [3]; SPR multi-cycle mode, steady-state affinity, PBST, 7% DMSO
  Kd: 227 µM

## Oc1cc2c(cc1O)[C@@H]1c3ccc(O)c(O)c3OC[C@]1(O)C2 [hematoxylin, Hematoxylin]
SARS CoV-2 M^pro [1]
  Inhibition%(80μM): 103.56% and 103.03%
  inhibition at 80 µM: 104%

## Cc1c(=O)c(=O)c2c3c[nH]c4c(C)c(=O)c(=O)c(c5c[nH]c1c52)c43 [melanin, Melanin]
SARS CoV-2 M^pro [1]
  Inhibition%(80μM): 96.84% and 96.92%
  inhibition at 80 µM: 95.8%
SARS CoV-2 M^pro [1]; Without Triton X−100
  IC50: 7.37 ± 0.368 µM
SARS CoV-2 M^pro [2]; compound 3.125 μM
  Tm of M^pro: 55.0 °C
  △T: 0.1 °C
SARS CoV-2 M^pro [2]; compound 50 μM
  Tm of M^pro: 54.9 °C
  △T: 0.0 °C
SARS CoV-2 M^pro [2]; compound 200 μM
  Tm of M^pro: 54.4 °C
  △T: -0.5 °C
SARS CoV-2 M^pro [2]
  Kd: 11.6 µM

## C[n+]1cc2c3c(ccc2c2ccc4cc5c(cc4c21)OCO5)OCO3 [sanguinarine, Sanguinarine]
SARS CoV-2 M^pro [1]
  Inhibition%(80μM): 107.86% and 107.40% and 108.34%
  result of retest over a concentration range: no inhibitory effect on M^pro when retested

## COc1cc(O)c2c(c1)oc(=O)c1c3cc(O)c(O)cc3oc21 [wedelolactone, Wedelolactone]
SARS CoV-2 M^pro [1]
  Inhibition%(80μM): 101.88% and 102.36%
  inhibition at 80 µM: 102%
SARS CoV-2 M^pro [1]; [4]
  IC50: 2.51 ± 0.276 µM
SARS CoV-2 M^pro [1]; Without Triton X−100
  IC50: 1 ± 0.238 µM
SARS CoV-2 M^pro [2]; compound 3.125 μM
  Tm of M^pro: 55.2 °C
  △T: 0.3 °C
SARS CoV-2 M^pro [2]; compound 50 μM
  Tm of M^pro: 55.8 °C
  △T: 0.9 °C
SARS CoV-2 M^pro [2]; compound 200 μM
  Tm of M^pro: 56.1 °C
  △T: 1.2 °C
SARS CoV-2 M^pro [2]
  Kd: 0.977 µM

## CC(C)=CCC(OC(=O)C=C(C)C)C1=CC(=O)c2c(O)ccc(O)c2C1=O (stereo not drawn) [β,β-dimethylacrylshikonin]
SARS CoV-2 M^pro [1]
  Inhibition%(80μM): 75.31% and 77.34% and 77.10%

## CC(C)=CC[C@H](OC(=O)C=C(C)C)C1=CC(=O)c2c(O)ccc(O)c2C1=O [β,β–dimethylacrylalkannin, β,β-Dimethylacrylalkannin]
SARS CoV-2 M^pro [1]
  Inhibition%(80μM): 99.09% and 97.96%
  inhibition at 80 µM: 100%
SARS CoV-2 M^pro [1]; [4]
  IC50: 2.89 ± 0.185 µM
SARS CoV-2 M^pro [1]; Without Triton X−100
  IC50: 2.73 ± 0.308 µM
SARS CoV-2 M^pro [2]; compound 50 μM
  Tm of M^pro: 57.7 °C
  △T: 2.8 °C
SARS CoV-2 M^pro [2]; compound 200 μM
  Tm of M^pro: 58.3 °C
  △T: 3.4 °C
SARS CoV-2 M^pro [2]
  Kd: 1.9 µM

## (-)-Epigallocatechin
SARS CoV-2 M^pro [1]
  Inhibition%(80μM): 78.95% and 75.28% and 77.55%

## Echinacoside
SARS CoV-2 M^pro [1]
  Inhibition%(80μM): 93.62% and 90.06% and 89.84%

## Forsythoside B
SARS CoV-2 M^pro [1]
  Inhibition%(80μM): 92.91% and 95.11% and 93.46%

## Harmol
SARS CoV-2 M^pro [1]
  Inhibition%(80μM): 74.50% and 81.33% and 79.31%

## Maleimide
SARS CoV-2 M^pro [1]
  Inhibition%(80μM): 103.98% and 104.37% and 103.27%

## Tubuloside A
SARS CoV-2 M^pro [1]
  Inhibition%(80μM): 87.62% and 90.37% and 86.87%
